According to PubChem BioAssay (NCI):
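Assay format: 96-well plates, 48-hour exposure. Abbreviation: GI50, concentration required for 50% inhibition of growth. Definition used: TGI = concentration required for complete inhibition of growth.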

Columns and labels:
Experiment in all cases: DTP human tumour cell line panel, 48 h
[1] = system: NCI/ADR-RES ovarian
[2] = system: COLO 205 colon
[3] = system: HCC-2998 colon
[4] = system: HS 578T breast
[5] = system: HL-60(TB) leukemia
[6] = system: TK-10 renal
[7] = system: DU-145 prostate
[8] = system: UACC-257 melanoma
[9] = system: T-47D breast

With `COc1ccc(C(=O)N2c3ccccc3Sc3ccccc32)c(C(F)(F)F)c1` the GI50 [1] was 0.37 µM, the TGI [1] was greater than 100 µM and the GI50 [2] was 0.319 µM. It also gave a TGI [2] of 1.48 µM, a GI50 [3] of 0.467 µM and a TGI [3] of 32 µM. For the same compound, the GI50 [4] was 0.472 µM, the TGI [4] was greater than 100 µM and the GI50 [5] was 0.252 µM. It also gave a TGI [5] of 0.793 µM, a GI50 [6] of 16.7 µM and a TGI [6] greater than 100 µM. It also gave a GI50 [7] of 0.433 µM, a TGI [7] greater than 100 µM and a GI50 [8] of 13.7 µM. For the same compound, the TGI [8] was greater than 100 µM.

In the case of `COc1ccc(/C=C2\N=C(c3ccccc3)N(C3Nc4cc5c(cc4S3)NC(N3C(=O)/C(=C/c4ccc(OC)cc4)N=C3c3ccccc3)S5)C2=O)cc1` (stereo not given), the TGI [9] is reported as greater than 100 µM, the TGI [1] is reported as 48 µM and the TGI [3] is reported as 97.7 µM. The TGI [4] was greater than 100 µM, the TGI [5] was greater than 100 µM and the TGI [6] was greater than 100 µM. For the same compound, the TGI [7] was greater than 100 µM and the TGI [8] was greater than 100 µM.

Work on `COc1cc(S(=O)(=O)Nc2ccc(-c3csc(N4C(=O)CSC4c4ccccc4)n3)cc2)ccc1Cl` (stereo not given) yielded a TGI [9] of 44.7 µM, a TGI [1] greater than 100 µM and a TGI [2] greater than 100 µM. For the same compound, the TGI [3] was 42.4 µM, the TGI [4] was greater than 100 µM and the TGI [5] was 55.7 µM. It also gave a TGI [7] greater than 100 µM and a TGI [8] greater than 100 µM.

Work on `CC1(C)Oc2ccc(NC(=O)CCC(N)C(=O)O)cc2O1` (stereo not given) yielded a TGI [9] greater than 100 µM, a TGI [1] greater than 100 µM and a TGI [2] greater than 100 µM. It also gave a TGI [3] greater than 100 µM, a TGI [4] greater than 100 µM and a TGI [5] greater than 100 µM. It also gave a TGI [6] greater than 100 µM and a TGI [7] greater than 100 µM.

`C[C@]12CC[C@@H]3c4ccc(OC(=O)c5ccccc5)cc4CC[C@H]3[C@@H]1CC[C@@H]2Oc1c2ccccc2nc2ccccc12` gave a TGI [1] greater than 50 µM, a TGI [2] greater than 50 µM and a TGI [3] of 16.9 µM. For the same compound, the TGI [4] was greater than 50 µM, the TGI [5] was 40.4 µM and the TGI [6] was greater than 50 µM. The TGI [7] was 20.3 µM and the TGI [8] was 38.6 µM.

`Cc1sc2ccccc2[n+]1CCC(=O)O` gave a TGI [9] greater than 100 µM, a TGI [1] greater than 100 µM and a TGI [2] greater than 100 µM. For the same compound, the TGI [4] was greater than 100 µM, the TGI [5] was 29.8 µM and the TGI [6] was greater than 100 µM. It also gave a TGI [7] greater than 100 µM and a TGI [8] greater than 100 µM.

Compound `Cc1ccc(S(=O)(=O)c2c(O)c3ccccc3n(C)c2=O)cc1` has a TGI [9] greater than 100 µM, a TGI [1] greater than 100 µM and a TGI [2] greater than 100 µM. For the same compound, the TGI [4] was greater than 100 µM, the TGI [5] was greater than 100 µM and the TGI [7] was greater than 100 µM. For the same compound, the TGI [8] was greater than 100 µM.

For `CCOc1cc(C2CC(c3ccc(NS(=O)(=O)c4cc([N+](=O)[O-])ccc4C)cc3)=NN2)ccc1O` (stereo not given), the TGI [9] was 82.9 µM, the TGI [1] was 71.3 µM and the TGI [2] was 43 µM. It also gave a TGI [4] greater than 100 µM, a TGI [5] of 50.5 µM and a TGI [7] greater than 100 µM.

For `O=S1(=O)c2ccccc2NC(=S)CC1c1ccccc1` (stereo not given), the TGI [9] was greater than 100 µM, the TGI [1] was greater than 100 µM and the TGI [2] was greater than 100 µM. The TGI [4] was greater than 100 µM, the TGI [5] was greater than 100 µM and the TGI [6] was greater than 100 µM. The TGI [7] was greater than 100 µM and the TGI [8] was greater than 100 µM.

With `O=c1[nH]c(N/N=C\C(O)C(O)C(O)CO)nc2ccccc12` (stereo not given) the TGI [9] was greater than 100 µM, the TGI [1] was greater than 100 µM and the TGI [2] was greater than 100 µM. It also gave a TGI [4] greater than 100 µM, a TGI [5] greater than 100 µM and a TGI [6] greater than 100 µM. The TGI [7] was greater than 100 µM and the TGI [8] was greater than 100 µM.

With `CCCCOCn1c(=O)[nH]c(=O)c2cc(Br)ccc21` the TGI [1] was 40.3 µM, the TGI [2] was greater than 100 µM and the TGI [3] was greater than 100 µM. It also gave a TGI [5] greater than 100 µM, a TGI [6] greater than 100 µM and a TGI [7] greater than 100 µM. It also gave a TGI [8] greater than 100 µM.

For `Cc1ccc(C(=O)/C(C#N)=C/Nc2c(C)n(C)n(-c3ccccc3)c2=O)cc1`, the TGI [9] was greater than 100 µM, the TGI [2] was greater than 100 µM and the TGI [3] was greater than 100 µM. For the same compound, the TGI [4] was greater than 100 µM, the TGI [5] was greater than 100 µM and the TGI [6] was greater than 100 µM. The TGI [7] was greater than 100 µM and the TGI [8] was greater than 100 µM.
